Assay results: patent US5004612A, “Pharmaceutical compositions comprising esters or amides as active ingredients” (priority 1987, dated 1991)
Like-named read-outs stand apart in the source and are kept apart here.

Experiments:
in vivo [1] = assay: in vivo; design: species or system male Sprague-Dawley rats; details: rat, BA
Protocol: (§1) The experiment was carried out according to the Yasuhara's method using intestinal loop in rats [see Journal of Pharmacobio-Dynamics, 2, 251 (1979)]. That is, male Sprague-Dawley rats weighing 220-260 g were fasted an overnight prior to surgery; however drinking water was readily accessible. The rats were anesthetized by sodium pentobarbital using an intraperitoneal injection of 50 mg/kg. The small intestine was exposed by a midline abdominal incision. The intestinal loop studied was used approximately 15 cm of the duodenal-jejunal site that was approximately 2 cm off the outlet of bile duct.
The suspension or solution containing active ingredients was directly administered into the loop and the both ends of the loop were closed. […] The active ingredient and the degradation products in sample were determined with high pressure liquid chromatography. […]
When Experiment 1 was carried out by using Compound A and D, blood was collected after a given period of time (0, 15, 30, 60 and 120 minutes after). The concentration of the active ingredient in blood was determined with high pressure liquid chromatography, and Area Under the plasma concentration-time Curve (AUC) was calculated and then bioavailability (BA) was calculated according to the following formula by comparing with AUC in intravenous administration. […]

in vivo [2] = assay: in vivo; design: species or system male Beagle dogs; details: dog, plasma, po, read-out: BA
Protocol: When Experiment 1 was carried out by using Compound A and D, blood was collected after a given period of time (0, 15, 30, 60 and 120 minutes after). The concentration of the active ingredient in blood was determined with high pressure liquid chromatography, and Area Under the plasma concentration-time Curve (AUC) was calculated and then bioavailability (BA) was calculated according to the following formula by comparing with AUC in intravenous administration. [formula] [AUCid]: AUC in intraduodenal administration [AUCiv]: AUC in intravenous administration
Each one soft capsule prepared in Reference Example 1, 2, 3, 4, 5 and 6 (used only a suspension of Example 2 (compound B) in Reference Example 4,5 and 6) was administered orally with 50 ml of water to six male Beagle dogs fasted an overnight (aged one to two and weighing 10±1 kg). By the same procedures as described in Experiment 2, the concentration of the active ingredient in blood, AUC, and then BA were calculated.
^1 Comparison: Compound A or Compound B (10 mg/5 ml) of water/kg
animal body weight) was orally administered.

in vivo [3] = assay: in vivo; design: species or system male Sprague-Dawley rats; details: rat, 5 mg/0.5 ml/animal, read-out: Remaining ratio of the active ingredient in small intestine; for remaining at 5 min: 5 minutes after; for remaining at 0.25 h: 15 minutes after
Protocol: The inhibitory effect of MCG on the degradation of esters of guanidinobenzoic acid in small intestine
as §1
The suspension or solution containing active ingredients was directly administered into the loop and the both ends of the loop were closed. The experiment with Compound G and I was carried out further by adding pancreatic juice and bile of other rats into the loop by cannula. After a given period of time, the loop was cut out. The contents were washed out with physiological salt solution and/or ethanol, and thereto was added a mixture of 0.1N aqueous methanesulfonic acid, 1,2-dichloroethane and isopropanol. The obtained mixture was centrifuged and the resulting supernatant was used as a sample. In the case of Compound D to H, the washings were directly used as a sample. The active ingredient and the degradation products in sample were determined with high pressure liquid chromatography.
Compound A: p-(p-guanidinobenzoyloxy)phenylacetic acid N,N-dimethylcarbamoylmethyl ester methanesulfonate [drawing 2] Compound B: p-guanidinobenzoic acid 6-amidinonaphth-2-yl ester dimethanesulfonate [drawing 3] Compound C: p-guanidinobenzoic acid methyl ester methanesulfonate [drawing 4] Compound D: 7-(3-tosylaminobicyclo[2.2.1]heptan-2-yl)-5Z-heptenoic acid ethyl ester [drawing 5] Compound E: salicylic acid ethyl ester [drawing 6] Compound F: aspirin [drawing 7] Compound G: 6-keto-16S,18S-ethano-20-ethyl-PGE1 leucine amide [drawing 8] Compound H: N-[3-[N-(4-chlorobenzyl)carbamoyl]propanoyl]-L-prolinal [drawing 9] Compound I: 7-(3-tosylaminobicyclo[2.2.1]heptan-2-yl)-5Z-heptenoic acid glycine amide [drawing 10] (wherein G is a guanidino group.)
H2 O: dissolving in the ratio of 5 mg of active ingredient/0.5 ml of water/animal.
MCM8(glyceryl monocaprylate): suspending in the ratio of 5 mg of active ingredient/0.5 ml of MCM8/animal.
MCT8(glyceryl tricaprylate): suspending in the ratio of 5 mg of active ingredient/0.5 ml of MCT8/animal.
2. 0.5 ml of physiological salt solution (referred to "SALT") for Compound D instead of water, because of its water-insoluble character.
3. 0.1 mg of Compound G were used because of its strong pharmacological effect, and isotonic phosphate buffer solution (referred to "PHOS") (pH 6.5) instead of water was used because of its water-insoluble character.

[4] = Water solubility (remark on administration); format: physicochemical

Compound: CN(C)C(=O)COC(=O)Cc1ccc(OC(=O)c2ccc(NC(=N)N)cc2)cc1.CS(=O)(=O)O [Compound A, p-(p-guanidinobenzoyloxy)phenylacetic acid N,N-dimethylcarbamoylmethyl ester methanesulfonate]
- bioavailability (in vivo [1]): 3%
- bioavailability (in vivo [2]; 10 mg/kg, Comparison A (10 mg/5 ml of water/kg body weight)): 6.3 ± 2.4%
- bioavailability (in vivo [2]; Reference Example 1 (soft capsule of Example 1 suspension)): 10.9 ± 4.3%
- bioavailability (in vivo [2]; Reference Example 2 (enteric-coated soft capsule, carboxymethylethyl cellulose)): 18.4 ± 7.3%
- bioavailability (in vivo [2]; Reference Example 3 (enteric-coated soft capsule, hydroxypropylmethyl cellulose acetate succinate)): 17.2 ± 11.5%

Compound: CS(=O)(=O)O.CS(=O)(=O)O.N=C(N)Nc1ccc(C(=O)Oc2ccc3cc(C(=N)N)ccc3c2)cc1 [Compound B, p-guanidinobenzoic acid 6-amidinonaphth-2-yl ester dimethanesulfonate]
- remaining at 5 min (in vivo [3]; H2O (COMPARISON)): 68.8 ± 1.7%
- remaining at 0.25 h (in vivo [3]; H2O (COMPARISON)): 27.5 ± 5.2%
- remaining at 5 min (in vivo [3]; MCM8 (INVENTION)): 90 ± 15.6%
- remaining at 0.25 h (in vivo [3]; MCM8 (INVENTION)): 70.5 ± 12.1%
- remaining at 5 min (in vivo [3]; MCT8 (INVENTION)): 80 ± 3.2%
- remaining at 0.25 h (in vivo [3]; MCT8 (INVENTION)): 60.8 ± 7.5%
- bioavailability (in vivo [2]; 10 mg/kg, Comparison B (10 mg/5 ml of water/kg body weight)): 1.7 ± 1.2%
- bioavailability (in vivo [2]; Reference Example 4 (soft capsule of Example 2 suspension)): 3.2 ± 1.7%
- bioavailability (in vivo [2]; Reference Example 5 (enteric-coated soft capsule, as Reference Example 2)): 5 ± 2.5%
- bioavailability (in vivo [2]; Reference Example 6 (enteric-coated soft capsule, as Reference Example 3)): 5.1 ± 2.1%

Compound: COC(=O)c1ccc(NC(=N)N)cc1.CS(=O)(=O)O [Compound C, p-guanidinobenzoic acid methyl ester methanesulfonate]
- solubility in water [4]: poor solubility

Compound: CCOC(=O)CCC/C=C\CC1C2CCC(C2)C1NS(=O)(=O)c1ccc(C)cc1 (stereo not drawn) [Compound D, 7-(3-tosylaminobicyclo[2.2.1]heptan-2-yl)-5Z-heptenoic acid ethyl ester]
- solubility in water [4]: water-insoluble

Compound: CCCC[C@H]1CC[C@H]([C@H](O)/C=C/[C@H]2[C@H](O)CC(=O)[C@@H]2CC(=O)CCCCC(=O)NC(CC(C)C)C(=O)O)C1 (stereo partly drawn) [Compound G, 6-keto-16S,18S-ethano-20-ethyl-PGE1 leucine amide]
- solubility in water [4]: water-insoluble
